# B1: GCSF-dithioproplonamido[12-aminododecylamido]-eVB12 (conjugate, UniProt P09919 31-207, looked up)
# Granulocyte …: TPLGPASSLPQSFLLKCLEQVRKIQGDGAALQEKLVSECATYKLCHPEELVLLGHSLGIPWAPLSSCPSQALQLAGCLSQLHSGLFLYQGLLQALEGISPELGPTLDTLQLDVADFATTIWQQMEELGMAPALQPTQGAMPAFASAFQRRAGGVLVASHLQSFLEVSYRVLRHLAQP
# modifications: disulphide-linked aminododecyl vitamin B12 conjugate
# notes: GCSF linked by disulphide at Cys-17 to DTP-aminododecyl-eVB12 (section 1.7)
# B2: GCSF-acylhydrazidyl-eVB12 (conjugate, UniProt P09919 31-207, looked up)
# Granulocyte …: B1 Granulocyte …
# modifications: hydrazide vitamin B12 conjugate
# notes: EDAC-mediated conjugate of hydrazido-eVB12 with carboxyl groups of GCSF (section 1.11)
# B3: GCSF-diothloproplonamido12-aminododecyl-suberyl-hexylamido-eVB12 (conjugate, UniProt P09919 31-207, looked up)
# Granulocyte …: B1 Granulocyte …
# modifications: disulphide-linked dodecylsuberylhexyl vitamin B12 conjugate
# notes: GCSF linked by disulphide to DTP-dodecylsuberylhexyl-eVB12 (section 1.9)
# B4: GCSF-acyl[adipyldihydrazidyl]-eVB12 (conjugate, UniProt P09919 31-207, looked up)
# Granulocyte …: B1 Granulocyte …
# modifications: adipyl-dihydrazide vitamin B12 conjugate
# notes: EDAC-mediated conjugate of adipylhydrazido-eVB12 with GCSF (section 1.12)
# Target: intrinsic factor (IF) (Homo sapiens, UniProt P27352)
# Sequence (P27352 19-417, species assumed): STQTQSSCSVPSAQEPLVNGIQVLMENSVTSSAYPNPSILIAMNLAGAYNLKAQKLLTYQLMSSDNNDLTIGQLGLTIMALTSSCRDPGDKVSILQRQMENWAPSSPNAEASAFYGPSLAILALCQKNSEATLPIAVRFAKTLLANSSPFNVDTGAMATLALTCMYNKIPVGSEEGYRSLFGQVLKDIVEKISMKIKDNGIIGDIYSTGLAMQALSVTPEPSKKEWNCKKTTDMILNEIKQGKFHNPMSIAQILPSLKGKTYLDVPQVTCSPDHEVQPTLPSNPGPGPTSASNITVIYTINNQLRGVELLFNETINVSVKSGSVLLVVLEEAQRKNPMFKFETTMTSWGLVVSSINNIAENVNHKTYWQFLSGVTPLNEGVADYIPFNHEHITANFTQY
# Experiment: Relative intrinsic factor (IF) affinity of eVB12 analogues and complexes
# Format: binding
# From the text: IF Affinity is expressed as a percentage of the affinity of the eVB12 derivative relative to native, unmodified VB12.
# [1] = percentage of the affinity of the eVB12 derivative relative to native, unmodified VB12
Molecule,IF Affinity [1] [%],IF Affinity (% of native eVB12)
2-aminoethylamido-eVB12,48,
6-aminohexylamido-eVB12,91,
12-aminododecyl-suberyl-hexylamido-eVB12,82,
12-aminododecylamido-eVB12,74,
EPO-acyl[adipyldlhydrazidyl]-eVB12,11,
EPO-acylhydrazidyl-eVB12,6,
adipyldihydrazidyl-eVB12,44,
dithiopropionamido[6-aminohexylamido]-eVB12,7,
dithioproplonamido[6-aminohexylamido]-eVB12,11,
dithlopropionamido[2-aminoethylamido]-eVB12,6,
eVB12 carboxylate,35,
hydrazidyl-eVB12,100,
B1,3,2-3%
B2,10,
B3,28,
B4,7,

# — patent US5548064A, “Vitamin B12 conjugates with EPO, analogues thereof and pharmaceutical compositions” (Biotech Australia Pty Limited, priority 1993, dated 1996)
